Measurements taken from PMC12024540, “Peptide-Based Regulation of TNF-α-Mediated Cytotoxicity” (Biomolecules, 2025).
Where two headings read alike, the source gives them in different places. Where no end group is shown, it is not given here.

Assays:
rhTNF-α = rhTNF-α (Homo sapiens, UniProt P01375); test: Microscale thermophoresis (MST) binding to labeled rhTNF-α; conditions: labeled rhTNF-α 20 nM, PBS, mean ± SD of three replicates
Description: MST was performed using a Monolith NT.115 Pico instrument (NanoTemper Technologies, Munich, Germany). In this technique, thermophoresis applied by irradiation with an infrared (IR) laser diode disrupts a ligand-target binding interaction that has equilibrated. The concentration of fluorescent molecules can be altered by the direct movement of molecules within a temperature gradient. The effect on the fluorescence signal is monitored continuously over time.
Experiments were performed using the Monolith Protein Labeling Kit RED-NHS 2nd Generation and Monolith NT.115 Premium Capillaries at Pico-RED 80% excitation power and medium MST power with thermophoresis. Mixtures of labeled molecules and functional peptides or TNFR1 were prepared in PBS. Labeled molecules were maintained at 20 nM for the peptide binding experiments, and the ligand concentrations varied according to the molecule with 16 serial dilutions. The peptide-labeled molecule mixture was loaded into the glass capillaries after 20 min incubation in the dark. Results were analyzed using M.O. Affinity Analysis v.2.3 software.

L929 cells [1] = test: MTT cytotoxicity of peptides on L929 cells; format: cell-based, mouse; conditions: at 10,000 nM (10 μM)
Description: (§1) The TNF-α neutralizing activity of designed peptides and adalimumab molecules was compared with cell-based bioactivity assays. L929 cells were cultured in DMEM supplemented with 10% FBS and 1% P/S in a humidified 5% CO2 incubator at 37 °C [43].
Cytotoxicity of peptides was determined using the 3-(4,5-dimethylthiazol-2-yl)-2,5 diphenyltetrazolium bromide (MTT) cell proliferation assay. Briefly, 3 × 10^4 cells in 100 μL were seeded into 96-well tissue culture plates and incubated at 37 °C in a 5% CO2 incubator for 24 ± 2 h. Peptide concentrations were diluted from 1 pM to 10 μM and measured in triplicate. The following kit protocol and absorbance were measured at 550 nm and 690 nm using a microplate reader (Gen5 Synergy HT BioTek, Winooski, VT, USA).

[2] = system: TNF-α-induced L929 cell death; test: TNF-α neutralization test (TNF-α-induced cytotoxicity, MTT) on L929 cells; format: cell-based, mouse
Description: as §1
(§2) In the TNF-α neutralization test, 3 × 10^4 cells in 100 μL were seeded into 96-well tissue culture plates and incubated at 37 °C in a 5% CO2 incubator for 24 ± 2 h. After incubation, cells were stimulated with 2 μg/mL actinomycin D and 1 ng/mL TNF-α in the presence of diluted concentrations of adalimumab and functional peptides ranging from 1 pM to 10 μM for 24 ± 2 h. […] TNF-α neutralizing activity was also examined by microscopy in a 24-well plate. Both the cytotoxicity effect and neutralizing activity of the OB1 peptide were visually examined by fluorescence microscopy (Zeiss AxioVert A, Oberkochen, Germany). OB1 and adalimumab were administered at a concentration of 1 μM with 1 ng/mL TNF-α.

L929 cells [3] = format: cell-based, mouse; conditions: 1 μM with TNF-α (1 ng/mL) and actinomycin D, microscopy
Description: as §2

TNF-α = conditions: peptide from T7 phage display library; cited from earlier work
Source text: Peptide-based TNF-α inhibition has garnered attention in recent years, as studies have shown that peptides may help treat inflammatory diseases. In a study conducted in 2023, a nine amino acid-long peptide targeting TNF-α was discovered using a T7 phage display library. […] OB1 also attenuated TNF-α-induced cell death based on morphological examination (Figure 8). […] Thus, C87 is used as a positive control in many TNF-α inhibitor studies.

Sequence of rhTNF-α (P01375 77-233 limits assumed): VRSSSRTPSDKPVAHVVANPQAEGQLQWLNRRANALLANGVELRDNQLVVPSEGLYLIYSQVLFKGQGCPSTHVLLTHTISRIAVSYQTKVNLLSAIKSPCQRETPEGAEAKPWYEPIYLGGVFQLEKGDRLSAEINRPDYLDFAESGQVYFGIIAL

Substance | Kd (rhTNF-α) [nM] | survival rate in TNF-α neutralization ([2]; 2 h, 10000 nM) [%] | further results
KRWSRYFWVDMTGTR-NH2 [OB8] | 3890 ± 4540 | – | cytotoxicity (in words) (L929 cells [1]): non-toxic
Adalimumab | 0.0211 ± 0.0036 | – | IC50 [2]: 3.85 nM; survival rate in TNF-α neutralization ([2]; L929 cells, 10,000 nM, 1 ng/mL TNF-α and actinomycin D): ~80%; cell survival by morphology with TNF-α and actinomycin D (L929 cells [3]): enhanced cell survival
KGGGSGGGSHIHDDLLRYYGW-NH2 [OB1] | 300 | ~80 | IC50 ([2]; mouse): 4.6 nM
ACHAWAPTR [pep2, nine amino acid-long peptide targeting TNF-α from a T7 phage display library] | – | – | Kd (TNF-α): 5140 nM
KGGGSGGGSGGGSRKEMGQV-NH2 [OB2] | 46.7 | ~80 | –
